Laboratory results: PubChem BioAssay (NCI)
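How tested: cells in 96-well plates exposed to compound for 48 hours at five concentrations. TGI marks complete inhibition of growth.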

Tests used:
Experiment in all cases: NCI anticancer screen, dose series, 48 h
786-0 renal = tested on: 786-0 renal
A549 NSCLC = tested on: A549 NSCLC
ACHN renal = tested on: ACHN renal
CAKI-1 renal = tested on: CAKI-1 renal
CCRF-CEM leukemia = tested on: CCRF-CEM leukemia
COLO 205 colon = tested on: COLO 205 colon
DU-145 prostate = tested on: DU-145 prostate
HCT-116 colon = tested on: HCT-116 colon
HCT-15 colon = tested on: HCT-15 colon
HL-60(TB) leukemia = tested on: HL-60(TB) leukemia
HOP-62 NSCLC = tested on: HOP-62 NSCLC
HOP-92 NSCLC = tested on: HOP-92 NSCLC
HS 578T breast = tested on: HS 578T breast
HT29 colon = tested on: HT29 colon
IGROV1 ovarian = tested on: IGROV1 ovarian
K-562 leukemia = tested on: K-562 leukemia
KM12 colon = tested on: KM12 colon
LOX IMVI melanoma = tested on: LOX IMVI melanoma
M14 melanoma = tested on: M14 melanoma
MALME-3M melanoma = tested on: MALME-3M melanoma
MCF7 breast = tested on: MCF7 breast
MDA-MB-231 breast = tested on: MDA-MB-231 breast
MDA-MB-435 = tested on: MDA-MB-435
MOLT-4 leukemia = tested on: MOLT-4 leukemia
NCI-H226 lung = tested on: NCI-H226 lung
NCI-H23 lung = tested on: NCI-H23 lung
NCI-H460 lung = tested on: NCI-H460 lung
NCI-H522 lung = tested on: NCI-H522 lung
NCI/ADR-RES ovarian = tested on: NCI/ADR-RES ovarian
OVCAR-3 ovarian = tested on: OVCAR-3 ovarian
OVCAR-4 ovarian = tested on: OVCAR-4 ovarian
OVCAR-5 ovarian = tested on: OVCAR-5 ovarian
OVCAR-8 ovarian = tested on: OVCAR-8 ovarian
PC-3 prostate = tested on: PC-3 prostate
RPMI-8226 leukemia = tested on: RPMI-8226 leukemia
RXF 393 renal = tested on: RXF 393 renal
SF-268 CNS = tested on: SF-268 CNS
SF-295 CNS = tested on: SF-295 CNS
SF-539 CNS = tested on: SF-539 CNS
SK-MEL-2 melanoma = tested on: SK-MEL-2 melanoma
SK-MEL-28 melanoma = tested on: SK-MEL-28 melanoma
SK-MEL-5 melanoma = tested on: SK-MEL-5 melanoma
SK-OV-3 ovarian = tested on: SK-OV-3 ovarian
SN12C renal = tested on: SN12C renal
SNB-19 CNS = tested on: SNB-19 CNS
SNB-75 CNS = tested on: SNB-75 CNS
SR leukemia = tested on: SR leukemia
SW-620 colon = tested on: SW-620 colon
T-47D breast = tested on: T-47D breast
TK-10 renal = tested on: TK-10 renal
U251 CNS = tested on: U251 CNS
UACC-257 melanoma = tested on: UACC-257 melanoma
UACC-62 melanoma = tested on: UACC-62 melanoma
UO-31 renal = tested on: UO-31 renal
A498 renal = tested on: A498 renal
BT-549 breast = tested on: BT-549 breast
EKVX NSCLC = tested on: EKVX NSCLC
HCC-2998 colon = tested on: HCC-2998 colon

## COc1cc2c(c(O)c1OC)C(=O)C(Cc1ccc(O)cc1)CO2 (stereo not drawn)
786-0 renal
  TGI: > 100 µM
A549 NSCLC
  TGI: 60.7 µM
ACHN renal
  TGI: > 100 µM
CAKI-1 renal
  TGI: 75.9 µM
CCRF-CEM leukemia
  TGI: > 100 µM
COLO 205 colon
  TGI: > 100 µM
DU-145 prostate
  TGI: > 100 µM
HCT-116 colon
  TGI: > 100 µM
HCT-15 colon
  TGI: > 100 µM
HL-60(TB) leukemia
  TGI: 98.3 µM
HOP-62 NSCLC
  TGI: > 100 µM
HOP-92 NSCLC
  TGI: > 100 µM
HS 578T breast
  TGI: 36.5 µM
HT29 colon
  TGI: > 100 µM
IGROV1 ovarian
  TGI: > 100 µM
K-562 leukemia
  TGI: > 100 µM
KM12 colon
  TGI: > 100 µM
LOX IMVI melanoma
  TGI: > 100 µM
M14 melanoma
  TGI: 84 µM
MALME-3M melanoma
  TGI: > 100 µM
MCF7 breast
  TGI: 8.65 µM
MDA-MB-231 breast
  TGI: 77.4 µM
MDA-MB-435
  TGI: 7.24 µM
MOLT-4 leukemia
  TGI: > 100 µM
NCI-H226 lung
  TGI: > 100 µM
NCI-H23 lung
  TGI: > 100 µM
NCI-H460 lung
  TGI: > 100 µM
NCI-H522 lung
  TGI: 15.3 µM
NCI/ADR-RES ovarian
  TGI: 39.2 µM
OVCAR-3 ovarian
  TGI: 26.4 µM
OVCAR-4 ovarian
  TGI: > 100 µM
OVCAR-5 ovarian
  TGI: > 100 µM
OVCAR-8 ovarian
  TGI: > 100 µM
PC-3 prostate
  TGI: > 100 µM
RPMI-8226 leukemia
  TGI: 60.3 µM
RXF 393 renal
  TGI: 54 µM
SF-268 CNS
  TGI: > 100 µM
SF-295 CNS
  TGI: 29.2 µM
SF-539 CNS
  TGI: 41.7 µM
SK-MEL-2 melanoma
  TGI: > 100 µM
SK-MEL-28 melanoma
  TGI: > 100 µM
SK-MEL-5 melanoma
  TGI: 49 µM
SK-OV-3 ovarian
  TGI: 61.3 µM
SN12C renal
  TGI: > 100 µM
SNB-19 CNS
  TGI: 74.1 µM
SNB-75 CNS
  TGI: 81.4 µM
SR leukemia
  TGI: > 100 µM
SW-620 colon
  TGI: > 100 µM
T-47D breast
  TGI: 69.6 µM
TK-10 renal
  TGI: > 100 µM
U251 CNS
  TGI: > 100 µM
UACC-257 melanoma
  TGI: > 100 µM
UACC-62 melanoma
  TGI: > 100 µM
UO-31 renal
  TGI: > 100 µM

## CNc1ccc(C(=O)CC(O)CCC(C)C2OC(=O)CC(O)CC(=O)CC(O)CC(O)CC(O)CC(O)CC3(O)CC(O)C(C(=O)NCCN4CCCCC4)C(CC(OC4OC(C)C(O)C(N)C4O)/C=C/C=C/C=C/C=C\C=C/C=C/C=C/C2C)O3)cc1 (stereo not drawn)
HL-60(TB) leukemia
  TGI: > 100 µM
K-562 leukemia
  TGI: > 100 µM

## C=C1C(O)CC[C@]2(C)C1C1OC(C)(C)O[C@]13CC(=O)C(C)=C([C@H]1OC(C)(C)OC12)C3(C)C (stereo partly drawn)
786-0 renal
  TGI: > 100 µM
A498 renal
  TGI: > 100 µM
A549 NSCLC
  TGI: > 100 µM
ACHN renal
  TGI: > 100 µM
BT-549 breast
  TGI: > 100 µM
CAKI-1 renal
  TGI: > 100 µM
CCRF-CEM leukemia
  TGI: > 100 µM
COLO 205 colon
  TGI: > 100 µM
DU-145 prostate
  TGI: > 100 µM
EKVX NSCLC
  TGI: > 100 µM
HCC-2998 colon
  TGI: > 100 µM
HCT-116 colon
  TGI: > 100 µM
HCT-15 colon
  TGI: > 100 µM
HL-60(TB) leukemia
  TGI: > 100 µM
HOP-62 NSCLC
  TGI: > 100 µM
HT29 colon
  TGI: > 100 µM
IGROV1 ovarian
  TGI: > 100 µM
K-562 leukemia
  TGI: > 100 µM
KM12 colon
  TGI: > 100 µM
LOX IMVI melanoma
  TGI: > 100 µM
MALME-3M melanoma
  TGI: > 100 µM
MCF7 breast
  TGI: > 100 µM
MDA-MB-231 breast
  TGI: > 100 µM
MDA-MB-435
  TGI: > 100 µM
MOLT-4 leukemia
  TGI: > 100 µM
NCI-H226 lung
  TGI: > 100 µM
NCI-H23 lung
  TGI: > 100 µM
NCI-H460 lung
  TGI: > 100 µM
NCI/ADR-RES ovarian
  TGI: > 100 µM
OVCAR-3 ovarian
  TGI: > 100 µM
OVCAR-4 ovarian
  TGI: > 100 µM
OVCAR-5 ovarian
  TGI: > 100 µM
OVCAR-8 ovarian
  TGI: > 100 µM
RPMI-8226 leukemia
  TGI: > 100 µM
RXF 393 renal
  TGI: > 100 µM
SF-268 CNS
  TGI: > 100 µM
SF-295 CNS
  TGI: > 100 µM
SF-539 CNS
  TGI: > 100 µM
SK-MEL-28 melanoma
  TGI: > 100 µM
SK-MEL-5 melanoma
  TGI: > 100 µM
SK-OV-3 ovarian
  TGI: > 100 µM
SN12C renal
  TGI: > 100 µM
SNB-19 CNS
  TGI: > 100 µM
SNB-75 CNS
  TGI: > 100 µM
SR leukemia
  TGI: > 100 µM
SW-620 colon
  TGI: > 100 µM
T-47D breast
  TGI: > 100 µM
TK-10 renal
  TGI: > 100 µM
U251 CNS
  TGI: > 100 µM
UACC-257 melanoma
  TGI: > 100 µM
UACC-62 melanoma
  TGI: > 100 µM
UO-31 renal
  TGI: > 100 µM
